The data set deals with Guinea pig's skin. The data set is described as follows: Skin penetration with Frantz cell, HPLC determination. In kind it is in vitro ADME. The method, then: Skin penetration was evaluated for Guinea pig's skin with Frantz cell. Before test, abdominal part, a piece of skin as large as 1 cm^2 square was excised. The excised skin was mounted on a Frantz cell with the diameter of 0.9 cm and fixed with clamp. 0.5 ml of test sample (in case of Examples 1˜9 and C. Examples 1˜6, 0.05 ml of sample and distilled water; and in case of Formulations 1˜30 and C. Formulations 1˜15, 0.5 ml of sample only) was placed on one side of skin (donor side). The other side (receiver side) was filled with mixture of distilled water and ethanol (4:1 weight ratio). Test was performed at 32° C., which is skin temperature. Test solvent was sampled at predetermined time intervals from the receiver side, and the amounts of penetrated compound K, ginsenoside F1 and compound Y were determined by HPLC system. The data were indicated in penetrated amount per applied concentration (μg/cm^2/wt %).
In case of purified ginseng saponin, the amount of penetrated saponin was determined. Also, in case of Bio GF1K, the amounts of penetrated compound K, ginsenoside F1 and compound Y were determined and total penetrated amounts were calculated by sum of each peak.
<HPLC Analytic Condition> • Column: C18 (ODS) • Solvent Flow: 1 ml/min • Detection UV: 203 nm • Sample test concentration 5 mg/ml • Sample injection amount: 10 μg • Eluent: Gradient condition • A: Acetonitrile/D.I. water=15/85 • B: Acetonitrile/D.I. water=80/20
<Solvent Gradient Condition>

As to `CC(C)=CCC[C@](C)(O[C@@H]1O[C@H](CO[C@@H]2OC[C@H](O)[C@H](O)[C@H]2O)[C@@H](O)[C@H](O)[C@H]1O)[C@H]1CC[C@]2(C)[C@@H]1[C@H](O)C[C@@H]1[C@@]3(C)CC[C@H](O)C(C)(C)[C@@H]3CC[C@]12C` [compound Y, 20-O-[α-L-arabinopyranosyl(1→6)-β-D-glucopyranosyl]-20(S)-protopanaxadiol], the “skin penetration (comparison in words)” value is given as “superior effects on skin penetration to purified ginseng saponin”.

On to `CC(C)=CCC[C@](C)(O[C@@H]1O[C@H](CO)[C@@H](O)[C@H](O)[C@H]1O)[C@H]1CC[C@]2(C)[C@@H]1[C@H](O)C[C@@H]1[C@@]3(C)CC[C@H](O)C(C)(C)[C@@H]3CC[C@]12C` [compound K, 20-O-β-D-glucopyranosyl-20(S)-protopanaxadiol], for which the “skin penetration (comparison in words)” value is listed as “superior effects on skin penetration to purified ginseng saponin”. For `CC(C)=CCC[C@](C)(O[C@@H]1O[C@H](CO)[C@@H](O)[C@H](O)[C@H]1O)[C@H]1CC[C@]2(C)[C@@H]1[C@H](O)C[C@@H]1[C@@]3(C)CC[C@H](O)C(C)(C)[C@@H]3[C@@H](O)C[C@]12C` [ginsenoside F1, 20-O-β-D-glucopyranosyl-20(S)-protopanaxatriol], the “skin penetration (comparison in words)” value is “superior effects on skin penetration to purified ginseng saponin”.

Source of the values: patent US8263565B2, “Nanoemulsion comprising metabolites of ginseng saponin as an active component and a method for preparing the same, and a skin-care composition for anti-aging containing the same” (Amorepacific Corporation, priority 2002, dated 2012).
